According to EP4201929A1, “QUINOXALINE THIOREDOXIN REDUCTASE INHIBITORS” (geneXplain GmbH, priority 2021, dated 2023):
Counter-ions that a name gives are not always drawn. Values belong to the molecule of their own block, whether it stands above or below them.

Legend:
HCT116-Cas9 = assay: Growth suppression assay (resazurin); format: cell-based; settings: 48 hours of incubation
Procedure: (§1) Breast, colon, ovarian, cervical, liver and lung carcinoma cell lines were grown in DMEM supplemented with 10% FBS, and antibiotics were cultured at 37 °C and 5% CO2. […] To obtain an oxygen concentration of 0.05%, the cells were flushed with the premixed gas continuously throughout the experiment.
(§2) Cells were grown in 96-well plates at a density of 3000 cells per well with or without doxycycline and treated with compounds. After 48 hours of incubation the proliferative cell reagent resazurin (Thermo Fisher Scientific) was added to the cells. The degree of resazurin reduction, which reflects cell viability, was measured by microplate reader by monitoring the absorbance at 570 nm and 600 nm, according to the manufacturer.

MCF7-Cas9 = assay: Growth suppression assay (resazurin); format: cell-based; settings: 48 hours of incubation
Procedure: as §1, §2

Solubility (solvent) = format: physicochemical; settings: solvent named in the table
TrxRl = TrxRl (Homo sapiens, UniProt Q16881); settings: cell extracts and crystal structure of tetrameric TrxRl; earlier publication of the applicants; cited from earlier work
Chain of TrxRl (Q16881 151-649): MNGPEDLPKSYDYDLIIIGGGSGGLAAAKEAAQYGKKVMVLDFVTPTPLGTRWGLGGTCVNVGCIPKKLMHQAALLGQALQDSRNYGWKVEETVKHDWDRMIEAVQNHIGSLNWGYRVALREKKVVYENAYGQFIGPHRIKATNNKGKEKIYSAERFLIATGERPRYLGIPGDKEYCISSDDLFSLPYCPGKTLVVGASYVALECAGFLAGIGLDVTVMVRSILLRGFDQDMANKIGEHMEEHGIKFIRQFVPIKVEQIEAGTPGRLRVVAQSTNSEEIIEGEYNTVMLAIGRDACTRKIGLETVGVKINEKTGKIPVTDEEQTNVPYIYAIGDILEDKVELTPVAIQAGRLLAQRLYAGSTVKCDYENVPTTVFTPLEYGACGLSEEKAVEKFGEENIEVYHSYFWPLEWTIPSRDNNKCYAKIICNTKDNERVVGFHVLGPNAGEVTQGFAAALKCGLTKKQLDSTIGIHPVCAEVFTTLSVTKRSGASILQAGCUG

IC50 (HCT116-Cas9; methanesulfonate): 1.2 µM
IC50 (MCF7-Cas9; methanesulfonate): 2.4 µM
Structure (SMILES): N#Cc1c(-c2ccncc2)[n+]([O-])c2cc(N3CCOCC3)c(F)cc2[n+]1[O-] [1a*MsOH, 7-Fluoro-6-(morpholin-4-yl)-3-(pyridin-4-yl)quinoxaline-2-carbonitrile-1,4-dioxide methanesulfonate]

IC50 (HCT116-Cas9; hydrochloride): 3.2 µM
IC50 (MCF7-Cas9; hydrochloride): 3.8 µM
Structure (SMILES): N#Cc1c(-c2ccncc2)[n+]([O-])c2cc(F)c(N3CCOCC3)cc2[n+]1[O-] [1b*HCl, 6-Fluoro-7-(morpholin-4-yl)-3-(pyridin-4-yl)quinoxaline-2-carbonitrile-1,4-dioxide hydrochloride]

IC50 (MCF7-Cas9; methanesulfonate): 4.2 µM
Structure (SMILES): N#Cc1c(-c2ccncc2)[n+]([O-])c2cc(F)c(N3CCOCC3)cc2[n+]1[O-] [1b*MsOH, 6-Fluoro-7-(morpholin-4-yl)-3-(pyridin-4-yl)quinoxaline-2-carbonitrile-1,4-dioxide methanesulfonate]

IC50 (HCT116-Cas9; hydrochloride): 10.9 µM
IC50 (MCF7-Cas9; 48 h): > 10 µM
Structure (SMILES): N#Cc1c(-c2cccnc2)[n+]([O-])c2cc(N3CCOCC3)c(F)cc2[n+]1[O-] [1c*HCl, 7-Fluoro-6-(morpholin-4-yl)-3-(pyridin-3-yl)quinoxaline-2-carbonitrile-1,4-dioxide hydrochloride]

Solubility (Solubility (solvent)): Warm DMSO
IC50 (HCT116-Cas9): 3.5 µM
IC50 (MCF7-Cas9): 6.9 µM
Structure (SMILES): N#Cc1c(-c2ccncc2)[n+]([O-])c2cc(N3CCOCC3)c(F)cc2[n+]1[O-] [Compound 1a, 7-Fluoro-6-(morpholin-4-yl)-3-(pyridin-4-yl)quinoxaline-2-carbonitrile 1,4-dioxide]

Solubility (Solubility (solvent)): Warm DMSO
IC50 (HCT116-Cas9; 48 h): 2.8 µM
IC50 (MCF7-Cas9; 48 h): 4.1 µM
Structure (SMILES): N#Cc1c(-c2ccncc2)[n+]([O-])c2cc(F)c(N3CCOCC3)cc2[n+]1[O-] [Compound 1b, 6-Fluoro-7-(morpholin-4-yl)-3-(pyridin-4-yl)quinoxaline-2-carbonitrile-1,4-dioxide]

Solubility (Solubility (solvent)): Warm DMSO
IC50 (HCT116-Cas9): 3.3 µM
Structure (SMILES): N#Cc1c(-c2cccnc2)[n+]([O-])c2cc(N3CCOCC3)c(F)cc2[n+]1[O-] [Compound 1c, 7-Fluoro-6-(morpholin-4-yl)-3-(pyridin-3-yl)quinoxaline-2-carbonitrile-1,4-dioxide]

Structure (SMILES): N#Cc1c(-c2cccnc2)[n+]([O-])c2cc(F)c(N3CCOCC3)cc2[n+]1[O-] [Compound 1d, 6-Fluoro-7-(morpholin-4-yl)-3-(pyridin-3-yl)quinoxaline-2-carbonitrile-1,4-dioxide]
Solubility (Solubility (solvent)): Warm DMSO
IC50 (HCT116-Cas9): 4.1 µM

Solubility (Solubility (solvent)): Warm DMSO
IC50 (HCT116-Cas9; 48 h): 2.2 µM
IC50 (MCF7-Cas9; 48 h): 3.8 µM
Structure (SMILES): N#Cc1c(-c2cccnc2)[n+]([O-])c2cc(F)c(N3CCCC3)cc2[n+]1[O-] [Compound 1f, 6-Fluoro-7-(pyrrolidin-1-yl)-3-(pyridin-3-yl)quinoxaline-2-carbonitrile-1,4-dioxide]

Solubility (Solubility (solvent)): Warm DMSO
IC50 (HCT116-Cas9; 48 h): 2.8 µM
IC50 (MCF7-Cas9; 48 h): 4.1 µM
Structure (SMILES): N#Cc1c(-c2cccnc2)[n+]([O-])c2cc(F)c(N3CCCCC3)cc2[n+]1[O-] [Compound 1g, 6-Fluoro-7-(piperidin-1-yl)-3-(pyridin-3-yl)quinoxaline-2-carbonitrile-1,4-dioxide]

Structure (SMILES): OCc1ccc(-c2ccc(-c3ccc(CO)s3)o2)s1 [RITA]
covalent link between TrxRl subunits (TrxRl): induced the formation of a covalent link between two oxidized Trp114 residues
